Source: PMC5460274 (Scientific Reports, 2017)
One block for each compound: values may come before it.

Experiments:
Type in all cases: cell-based
[1] = target: T1, dimethylarginine dimethylaminohydrolase 1 (DDAH1) (Homo sapiens, UniProt O94760); assay: UPLC-MS of L-citrulline formation; […] inhibition at […], reversible on dilution
T1 construct: recombinant DDAH1 over-expressed in HEK293T cells (lysate)

[2] = target: T1, dimethylarginine dimethylaminohydrolase 1 (DDAH1); assay: UPLC-MS of L-citrulline formation from ADMA; […] inhibition at […]
[3] = target: T1, dimethylarginine dimethylaminohydrolase 1 (DDAH1); assay: UPLC-MS of L-citrulline formation; […] inhibition at […], time-dependent, reversible on dilution

T1 sequence (O94760 2-285): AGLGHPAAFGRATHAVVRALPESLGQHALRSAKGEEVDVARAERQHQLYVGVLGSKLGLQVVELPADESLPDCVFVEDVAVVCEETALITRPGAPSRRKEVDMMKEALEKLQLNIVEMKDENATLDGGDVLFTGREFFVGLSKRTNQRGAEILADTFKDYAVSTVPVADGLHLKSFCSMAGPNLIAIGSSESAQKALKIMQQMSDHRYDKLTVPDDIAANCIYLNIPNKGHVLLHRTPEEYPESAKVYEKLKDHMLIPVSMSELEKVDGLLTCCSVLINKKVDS

% [1]: 24%
SMILES: COc1ccc2[nH]c([S+]([O-])Cc3ncc(C)c(OC)c3C)nc2c1 (stereo not drawn) [OPZ, omeprazole]

% [2]: 72%
SMILES: COCCNC(N)=NCCC[C@H](N)C(=O)NS(C)(=O)=O [10a, ZST316]

% [3]: 23%
SMILES: Cc1c(OCC(F)(F)F)ccnc1C[S+]([O-])c1nc2ccccc2[nH]1 (stereo not drawn) [LPZ, lansoprazole]
